Source: patent publication US7399823B1, “Antimicrobial theta defensins and methods of using same” (The Regents of the University of California, priority 2000, dated 2008)
Marks after values point to notes of the source that are not given here. Positions of bridges follow the written chain, without caps; N, C: chain ends. Residues, ends and D or L forms follow the SMILES beside them.

Tests used:
Format in all cases: cell-based
[1] = tested on: Staphylococcus aureus 502a; assay: Agar diffusion assay
Procedure: (§1) The purified chromatographic peaks were screened for antibacterial activity against Escherichia coli ML35 and Staphylococcus aureus 502a. Briefly, antibacterial activity was screened with an agar diffusion assay using lyophilized samples of HPLC fractions dissolved in 5 μl of 0.01% acetic acid as described by Lehrer et al., J. Immunol. Methods 137:167-173 (1991)).
(§2) Agar diffusion assays and microbicidal suspension assays were used to examine the activity of theta defensin against Staphylococcus aureus 502A, Escherichia coli ML35, Listeria monocytogenes, and Cryptococcus neoformans.

Escherichia coli ML35 [2] = assay: Agar diffusion assay
Procedure: as §1, §2

[3] = tested on: Listeria monocytogenes EDG; assay: Microbicidal suspension assay, killing quantified by colony counts; settings: for % killed: RTD-1 10 mg/ml, 2 h, 37 C.
[4] = tested on: Cryptococcus neoformans 271a; assay: as above; settings: for % killed: RTD-1 10 mg/ml, 2 h, 37 C.
Candida albicans = assay: as above
Cryptococcus neoformans = assay: Agar diffusion assay; settings: 10, 30, 100 or 300 μg/ml; agar seeded with 1×10^6 colony forming units
Description: as §2

Listeria monocytogenes = assay: Agar diffusion assay; settings: 10, 30, 100 or 300 μg/ml; agar seeded with 1×10^6 colony forming units
Description: as §2

[5] = tested on: Salmonella typhimurium, PhoP^−; assay: Microbicidal suspension assay, killing quantified by colony counts; settings: 2 hr, 10 mM PIPES, pH 7.4, 5 mM glucose; FIG. 9
Escherichia coli ML35 [6] = assay: as above; settings: for % killed: 2 h, 37 C.
Procedure: Additional antimicrobial assays were conducted on other microbial organisms. […] In FIG. 9A, S. aureus 502a was incubated with increasing concentrations of natural or synthetic peptide for 30 min at 37° C. in 10 mM PIPES, pH 7.4, containing 5 mM glucose. Killing was quantified by colony counts. […] The limit of detection (1 colony per plate) was equal to 1×10^3 colony forming units in the incubation mixture.
(§3) An acyclic version of theta defensin was also tested for antimicrobial activity. […] Killing activity was quantified by colony counts after 18 hrs.
(§4) The microbicidal activity in the presence of physiological salt concentrations was tested against various microorganisms in various buffers.

[7] = tested on: Staphylococcus aureus 502a; assay: as above; settings: for % killed: 37 C.
Procedure: Killing was quantified by colony counts.
Additional antimicrobial assays were conducted on other microbial organisms. […] In FIG. […] Killing was quantified by colony counts. […] The limit of detection (1 colony per plate) was equal to 1×10^3 colony forming units in the incubation mixture.
It has been proposed that salt sensitivity of airway defensins underlies the susceptibility of cystic fibrosis patients to pulmonary infections.
as §3, §4

[8] = 10, 30, 100 or 300 μg/ml, agar seeded with 1×10^6 colony forming units
[9] = 2 hr, 10 mM PIPES, pH 7.4, 5 mM glucose, FIG. 9
[10] = 10 mM PIPES, pH 7.4, 5 mM glucose, 150 mM NaCl

In the case of CC[C@H](C)[C@@H]1NC(=O)[C@@H]2CSSC[C@H](NC(=O)[C@H](CCCNC(=N)N)NC(=O)[C@@H]3CSSC[C@H](NC1=O)C(=O)N[C@@H]([C@@H](C)O)C(=O)N[C@@H](CCCNC(=N)N)C(=O)NCC(=O)N[C@@H](Cc1ccccc1)C(=O)N3)C(=O)N[C@@H](CC(C)C)C(=O)N[C@H]1CSSC[C@H](NC(=O)[C@H](C(C)C)NC(=O)CNC(=O)[C@H](CCCNC(=N)N)NC(=O)[C@H](CCCNC(=N)N)NC1=O)C(=O)N[C@@H](CCCNC(=N)N)C(=O)N2 [RTD-1] (cyclo(GFCRCLCRRGVCRCICTR); disulfide 3-16, 5-14, 7-12), the zone of inhibition [1, 8] was “dose dependent increase”, the “antibacterial activity compared with the other leukocyte peptides isolated” value ([1]; screen of purified HPLC peaks) was “greatest activity” and the zone of inhibition (Escherichia coli ML35 [2]; [8]) was “dose dependent increase”. For the same compound, the “antibacterial activity compared with the other leukocyte peptides isolated” value (Escherichia coli ML35 [2]; screen of purified HPLC peaks) was “greatest activity”, the “microbicidal activity (killing)” value [3, 9] was “killed” and the “% killed” value [3, 10] was over 99.99%. For the same compound, the “% killed” value ([3]; 10 mM Tris HCl, pH 7.4, 150 mM NaCl) was over 99.99%, the “microbicidal activity (killing)” value [4, 9] was “killed” and the “% killed” value [4, 10] was over 99.99%. The “% killed” value ([4]; 10 mM Tris-HCl, pH 7.4, 150 mM NaCl) was over 99.99%, the “microbicidal activity (killing)” value (Candida albicans; [9]) was “killed” and the “% killed” value (Candida albicans; RTD-1 10 mg/ml, 2 h, 37 C., 10 mM Tris HCl, pH 7.4, 150 mM NaCl) was over 98%. For the same compound, the zone of inhibition (Cryptococcus neoformans) was “dose dependent increase”, the zone of inhibition (Listeria monocytogenes) was “dose dependent increase” and the “microbicidal activity (killing)” value [5] was “killed”. The “microbicidal activity (killing)” value (Escherichia coli ML35 [6]; [9]) was “killed”, the “% killed” value (Escherichia coli ML35 [6]; RTD-1 25 mg/ml, 10 mM Tris-HCl, pH 7.4, 25% human AB serum) was >99* % and the “% killed” value (Escherichia coli ML35 [6]; RTD-1, 10 mM PIPES, pH 7.4, 5 mM glucose, 150 mM NaCl) was over 99%. For the same compound, the “% killed” value (Escherichia coli ML35 [6]; RTD-1, 10 mM Tris-HCl, pH 7.4, 150 mM NaCl) was over 99.99%, the “activity of cyclic form relative to acyclic form” value (Escherichia coli ML35 [6]; gram negative bacteria (E. coli)) was “about three times more active” and the “effect of NaCl on staphylocidal activity” value ([7]; 10 μg/ml peptide, 2 h, NaCl concentrations as high as 150 mM) was “little effect”. The “microbicidal activity (killing)” value ([7]; 10 mM PIPES, pH 7.4, 5 mM glucose, 37° C., FIG. 9) was “killed”, the “% killed” value ([7]; 2 h, 10 mM PIPES, pH 7.4, 5 mM glucose, 150 mM NaCl, 1-2 × 10^6 CFU/ml) was over 99% and the “% killed” value ([7]; 2 h, 10 mM Tris-HCl, pH 7.4, 150 mM NaCl) was over 99.99%. For the same compound, the “peptide concentration reducing colony counts to below the level of detection” value ([7]; 2 h at 37° C. in 10 mM PIPES, pH 7.4) was at least 4 µg/mL and the “% killed” value ([7]; RTD-1 25 mg/ml, 2 h, 10 mM Tris-HCl, pH 7.4, 50% human AB serum) was >99* %.
